What was measured:
[1] = tested on: patient suffering from reactive hypoglycemia; assay: Treatment of reactive hypoglycemia; assay type: in vivo, human; conditions: long-acting controlled release formulation; for IGF-2 levels: serum
Description: A patient suffering from reactive hypoglycemia has a serum sample evaluated for IGF-1 and IGF-2 levels. IGF-1 levels are normal but IGF-2 levels are more than two standard deviations below the expected levels for a person of the same age, sex and body weight. The patient is treated by administering IGF-2 or 22K-GH in a long-acting controlled release formulation.

[2] = tested on: IGF-1 and IGF-2; conditions: cited from earlier work
[3] = target: bp3 (Homo sapiens, UniProt P17936); conditions: cited from earlier work
Chain of bp3 (P17936 28-291): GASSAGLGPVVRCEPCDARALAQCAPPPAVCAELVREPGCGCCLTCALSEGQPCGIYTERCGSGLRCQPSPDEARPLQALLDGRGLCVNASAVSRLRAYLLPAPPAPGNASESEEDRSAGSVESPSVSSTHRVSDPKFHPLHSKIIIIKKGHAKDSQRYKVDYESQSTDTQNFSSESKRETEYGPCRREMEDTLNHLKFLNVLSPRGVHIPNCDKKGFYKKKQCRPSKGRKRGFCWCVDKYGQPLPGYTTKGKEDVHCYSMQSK

| Substance | hypoglycemic episodes [1] | IGF-2 levels [1] | effects on the synthesis and secretion of IGFs [2] | affinity to bp3 [3] |
| --- | --- | --- | --- | --- |
| 22K-GH: the larger human growth hormone isoform | less frequent | increased | stimulate both IGF-1 and IGF-2 |  |
| IGF-1: IGF polypeptide in serum that binds bp3 |  |  |  | equal affinity |
| IGF-2: IGF polypeptide; competes with insulin for binding to the insulin receptor | less frequent | increased |  | equal affinity |

Reference: patent US20020165127A1, “Methods for treating insulin resistance and identifying patients at risk for the disease” (SuperGen, Inc., priority 1996, published 2002)
